Some test systems named below: A498; ACHN; COLO 205; HCT-116; HCT-15; HL-60; HOP-92; Hs-578T; IGROV-1; MCF7; MDA-MB-435; MDA-N; MOLT-4; Malme-3M; OVCAR-5; PC-3; SF-539; SK-MEL-28; TK-10; UO-31.
Holding throughout (assay): NCI-60 cell line screen, 48 h

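Dose response: 5 concentrations. Exposure: 48 h. Format: 96-well plates. Endpoint: linear interpolation; highest concentration if not reached. At the GI50, growth is halved.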 Active and inactive are the calls of the source. Rule as the data show it: active = GI50 up to about 1.1 µM and inactive = higher. Bounds are passed on as bounds.

On to `Cc1ncc([N+](=O)[O-])n1CCNS(=O)(=O)CCCn1ncnc1[N+](=O)[O-]`, for which the GI50 in the assay with A498 was > 100 µM (inactive); with ACHN, > 100 µM (inactive); in the assay on COLO 205, > 100 µM (inactive); in the assay with HCT-116, > 100 µM (inactive); in the assay on HCT-15, > 100 µM; in the assay on HL-60, > 100 µM (inactive). In addition, the GI50 in the assay with HOP-92, with Hs-578T, in the assay with IGROV-1, with MCF7, in the assay on MDA-MB-435 and with MDA-N was > 100 µM (inactive) throughout. For the same compound, the GI50 with MOLT-4, with Malme-3M, in the assay with OVCAR-5, in the assay with PC-3, in the assay with SF-539 and in the assay with SK-MEL-28 was > 100 µM (inactive) each time. The GI50 with TK-10 and in the assay with UO-31 was > 100 µM (inactive) in each case.

The values above are taken from ChEMBL document CHEMBL1201862, “PubChem BioAssay data set” (2004).
